Source: patent US4693977A, “Enzyme immobilization for producing cephalosporin antibiotics” (Queen's University at Kingston, priority 1986, dated 1987)
Several values for one entry are separate records, joined by “and”; a condition that tells them apart may be missing. Equal entries are not always repeated.

Assays:
[1] = test system: cyclase, epimerase and ring expansion enzyme from a cell-free extract of S. clavuligerus; assay: Cyclization / ring expansion of peptides with enzymes of S. clavuligerus cell-free extract (SPCFX); format: biochemical
Experimental: (§1) Cyclization activity of enzyme preparations was measured in reaction mixtures containing: bis-δ-(L-α-amino-adipyl-L-cysteinyl-D-valine) (ACV)2 0.306 mM, […] 4 mM, Na ascorbate 2.8 mM, FeSO4 45 μM, tris-HCl buffer 0.05M, pH 7.0, enzyme preparation 0.03-0.3 ml, final volume 0.4 ml. Reaction mixtures were incubated at 20° C. for up to 4 hours and stopped by cooling on ice or by the addition of 0.4 ml methanol.
(§2) Ring expansion activity was followed using the cyclization assay system described above but supplemented with ATP 0.5 mM, α-ketoglutarate 1 mM, KCl 7.5 mM, and MgSO4 7.5 mM. Total volume and incubation conditions were the same as for the cyclization assay.
(§3) To 0.4 ml of reaction mixture were added 0.9 mM of ACV dimer as produced in Example 4, 50.0 mM Tris-HCl pH 7.0 buffer and a mixture of the three enzymes as produced in Example 1 from a cell-free extract of S. clavuligerus, together with 45.0 μM ferrous sulfate and 2.8 mM ascorbic acid as optimized amounts of essential co-factors. DTT was added in excess of the amount required to reduce ACV dimer to ACV monomer. The reaction was continued for approximately 2 hours at 20° C. and then terminated by addition of 0.4 ml methanol to precipitate protein.
(§4) The procedures of Example 7 were repeated using L-aspartyl, L-glutamyl, D-α-aminoadipyl, adipyl, glycyl-L-α-aminoadipyl and N-acetyl-L-α-aminodipyl-containing peptides. […] A prokaryotic system is, therefore, required. Modification of the valinyl moiety, as noted above, has been considered in detail. Substrates modified in the valinyl moiety such as: [drawing 17] where R1 is H, a lower alkyl or functionalized carboxylic group; and R2 is H or a lower alkyl group may be cyclized with carbon-sulfur bond formation with retention of configuration at the beta carbon of the valine analog, leading to isopenicillin N analogs of the type: [drawing 18] Following epimerization to penicillin N analogs of the type: [drawing 19] ring expansion leads to cephalosporin analogs of the type: with transfer of the beta carbon atom attached to C2 of (11) into C2 of the six membered ring.
(§5) Methanol inactivated reaction mixtures (from Examples 7 and 8) were centrifuged at 12,000×g for 5 min to remove precipitated protein before analysis. Reaction mixtures from Example 9 were examined directly. The chromatographic equipment used was: M-6000A pump, UK-6 injector, M-480 variable wavelength director, M-420 data module and Bondapak-C18 column (Rad Pak A in a Z module) as stationary phase. All equipment was from Waters Scientific Co., Mississauga, Ontario. The mobile phase consisted of methanol/0.05 M potassium phosphate buffer, pH 4.0 (5/95). The methanol content of the mobile phase depended upon the particular separation and the source of the material e.g. Examples 7 and 8 or Example 9. A short precolumn (packed with Bondapak C18 /Corasil) was used to guard the main column. UV-absorbing material was detected at 220 nm at a sensitivity of 0.02 AUFS.

[2] = biological target: T1, cyclase, epimerase and ring expansion enzyme from a cell-free extract of S. clavuligerus (Streptomyces clavuligerus, UniProt P10621); assay: as above; format: biochemical
T1 construct: from a cell-free extract of S. clavuligerus; endogenous in cells; host or cells: Streptomyces clavuligerus (cell-free extract / salt-precipitated cell-free extract)
T1 sequence (P10621 1-329): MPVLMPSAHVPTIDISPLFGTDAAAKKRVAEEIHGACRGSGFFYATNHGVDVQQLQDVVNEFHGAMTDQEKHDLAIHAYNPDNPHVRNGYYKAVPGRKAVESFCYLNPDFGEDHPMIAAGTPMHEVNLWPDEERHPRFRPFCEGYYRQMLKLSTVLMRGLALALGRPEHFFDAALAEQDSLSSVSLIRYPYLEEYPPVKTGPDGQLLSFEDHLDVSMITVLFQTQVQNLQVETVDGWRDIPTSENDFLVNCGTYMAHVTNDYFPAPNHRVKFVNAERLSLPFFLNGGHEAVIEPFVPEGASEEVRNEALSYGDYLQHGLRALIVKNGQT
Experimental: as §1, §2, §3, §4, §5

[3] = test system: E. coli Ess + penicillinase; assay: Agar diffusion bioassay of ring expansion reaction mixtures, plates with penicillinase; format: cell-based, Escherichia coli; settings: for Zone of Inhibition, E. coli Ess + penicillinase: SPCFX, 2h at 20° C., 20 μl; for Cephalosporin C "equivalents" / Zone of Inhibition: immobilized enzyme reactor reaction mixture
Experimental: (§6) 2 ml of the reaction mixture was applied to the immobilized enzyme reactor by means of a peristaltic pump operating at 40 ml/h. Effluent was collected into a 13×100 mm test tube from which the original reaction mixture was pumped, and therefore was recycled continuously through the enzyme reactor. The enzyme reactor was operated at 21° C. and 20 μl aliquots were removed at 15 minute time intervals for analysis for antibiotic formation. (Table I).
(§7) Antibiotic in reaction mixtures was estimated by the agar diffusion method. Cyclization reaction mixtures were bioassayed using Micrococcus luteus ATCC. 9341 and Escherichia coli Ess as indicator organisms. Ring expansion reaction mixtures were bioassayed using E. coli Ess as indicator organism in agar plates supplemented with penicillinase at 2×10^5 units/ml
(§8) The procedure of Example 7 was repeated with ACV analogs in which valine was replaced by alpha-aminobutyric acid (R1 =R2 =H) and allo-isoleucine (R1 =H, R2 =C2 H5), as follows: (AC-aminobutyrate)2 (ACAB)2 and (AC-alloisoleucine)2 (ACI)2 were dissolved in water, neutralized, and lyophilized in 0.1 and 1.0 mg amounts. These peptides were then used as substrates in cyclization and ring expansion assays as follows: One hundred micrograms of (ACV)2 from Example 6 was used as substrate in a cyclization and a ring expansion assay system using 0.1 ml of salt-precipitated cell-free extract as enzyme source in each case. (Final concentration of (ACV)2 is 0.306 mM). Identical cyclization and ring expansion assays were set up in which 100 μg (ACAB)2 or 1.0 mg (ACI)2 replaced the (ACV)2 as substrate and 0.3 ml of salt precipitated cell-free extract was used as enzyme source. No substrate controls were also prepared. The reaction mixtures were incubated for 2h at 20° C. At the end of incubation 20 μl amounts of the cyclization reaction mixtures were bioassayed versus M. luteus and E. coli Ess; 20 μl amounts of the ring expansion reaction mixtures were bioassayed versus E. coli Ess plus and minus penicillinase.

[4] = test system: Escherichia coli Ess; assay: Agar diffusion bioassay of reaction mixtures versus E. coli Ess; format: cell-based; settings: for Zone of Inhibition, E. coli Ess: SPCFX, 2h at 20° C., 20 μl
From the text: as §7, §8

[5] = test system: Micrococcus luteus ATCC. 9341; assay: Agar diffusion bioassay of cyclization reaction mixtures versus M. luteus; format: cell-based; settings: cyclization reaction mixture, SPCFX, 2h at 20° C., 20 μl
From the text: as §7, §8

[6] = biological target: T2, immobilized SPCFX (cyclase, epimerase, ring expansion enzyme) on DEAE Trisacryl (Streptomyces clavuligerus, UniProt P10621); assay: Conversion of ACV on immobilized SPCFX column (immobilized enzyme reactor), HPLC; format: biochemical; settings: 1 mg ACV, cycled 1.5 hours at 40 ml per hour through 2 ml immobilized SPCFX
T2 construct: Cell-free extracts were prepared by washing 40-48 h cells of S. clavuligerus; endogenous in cells
T2 sequence (P10621 1-329): T1 sequence (P10621 1-329)
Experimental: DEAE-Trisacryl® resin was loaded into a column 0.4×5.8 cm (packed bed volume, 1 ml), washed with 3×2 ml of the same EDTA buffer, and allowed to drain to dryness by gravity. One milliliter of the salt-precipitated cell-free extract above was applied to the column. The effluent was collected and reapplied to the column twice to ensure complete enzyme loading. The column was washed with 2×1 ml of the same EDTA buffer, drained dry and centrifuged for 3 min. at 500×g to remove excess buffer. This immobilized enzyme reactor was stored at 4° C. when not in use.
as §6
Methanol inactivated reaction mixtures (from Examples 7 and 8) were centrifuged at 12,000×g for 5 min to remove precipitated protein before analysis. Reaction mixtures from Example 9 were examined directly. […] UV-absorbing material was detected at 220 nm at a sensitivity of 0.02 AUFS. […]

[7] = ring expansion reaction mixture
[8] = mixture of the three enzymes, approx. 2 hours at 20° C., without alpha-ketoglutarate

## CC(=O)N[C@@H](CCCC(=O)N[C@@H](CS)C(=O)N[C@@H](C(=O)O)C(C)C)C(=O)O
[1]; via an initial deacylation to ACV
  conversion product with SPCFX: penicillin N and isopenicillin N
[2]; procedures of Example 7
  cyclization of the peptide: Cyclization was observed

## CC[C@@H](NC(=O)[C@H](CSSC[C@H](NC(=O)CCC[C@H](N)C(=O)O)C(=O)N[C@H](CC)C(=O)O)NC(=O)CCC[C@H](N)C(=O)O)C(=O)O [(ACAB)2]
[3]; [7]
  formation of penicillinase-insensitive antibiotic: do not form penicillinase-insensitive antibiotic
  Zone of Inhibition, E. coli Ess + penicillinase: 0 mm
[4]; cyclization reaction mixture
  antibiotic activity equivalent to a solution of cephalosporin C against E. coli Ess: 0.9 µg/mL
  Zone of Inhibition, E. coli Ess: 12.5 mm
[4]; [7]
  formation of antibiotic affecting E. coli Ess: nor do they form any antibiotic affecting E. coli Ess
  Zone of Inhibition, E. coli Ess: 8.0 mm
[5]
  Zone of Inhibition, M. luteus: 8.0 mm

## CC[C@H](C)[C@@H](NC(=O)[C@H](CSSC[C@H](NC(=O)CCC[C@H](N)C(=O)O)C(=O)N[C@@H](C(=O)O)[C@@H](C)CC)NC(=O)CCC[C@H](N)C(=O)O)C(=O)O [(ACI)2]
[3]; [7]
  antibiotic activity equivalent to a solution of cephalosporin C, E. coli Ess + penicillinase plates: 0.9 µg/mL
  Zone of Inhibition, E. coli Ess + penicillinase: 12.5 mm
[4]; cyclization reaction mixture
  antibiotic activity equivalent to a solution of cephalosporin C against E. coli Ess: 4.85 µg/mL
  Zone of Inhibition, E. coli Ess: 20.0 mm
[4]; [7]
  Zone of Inhibition, E. coli Ess: 20.0 mm
[5]
  Zone of Inhibition, M. luteus: 13.0 mm

## CC(C)[C@@H](NC(=O)[C@H](CSSC[C@H](NC(=O)CCC[C@H](N)C(=O)O)C(=O)N[C@@H](C(=O)O)C(C)C)NC(=O)CCC[C@H](N)C(=O)O)C(=O)O [(ACV)2, bis-δ-(L-α-amino-adipyl-L-cysteinyl-D-valine)]
[3]; sample time 0 min
  Cephalosporin C "equivalents": 0
[3]; sample time 0 min, 20 μl aliquot
  Zone of Inhibition: 0 mm
[3]; sample time 15 min
  Cephalosporin C "equivalents": .031 μm
  Zone of Inhibition: 15 mm
[3]; sample time 30 min
  Cephalosporin C "equivalents": .086 μm
  Zone of Inhibition: 19.5 mm
[3]; sample time 45 min
  Cephalosporin C "equivalents": .062 μm
  Zone of Inhibition: 18.5 mm
[3]; sample time 60 min
  Cephalosporin C "equivalents": .136 μm
  Zone of Inhibition: 21.5 mm
[3]; sample time 75 min
  Cephalosporin C "equivalents": .136 μm
  Zone of Inhibition: 21.5 mm
[3]; [7]
  antibiotic activity equivalent to a solution of cephalosporin C, E. coli Ess + penicillinase plates: 7.6 µg/mL
  Zone of Inhibition, E. coli Ess + penicillinase: 22 mm and 22.0 mm
[4]; cyclization reaction mixture
  antibiotic activity equivalent to a solution of cephalosporin C against E. coli Ess: 29.3 µg/mL
  Zone of Inhibition, E. coli Ess: 28.0 mm
[4]; [7]
  Zone of Inhibition, E. coli Ess: 28.5 mm
[5]
  Zone of Inhibition, M. luteus: 29.0 mm

## CC(C)[C@@H](NC(=O)[C@H](CS)NC(=O)CCC[C@H](N)C(=O)O)C(=O)O [ACV, L-aminoadipyl-L-cysteinyl-D-valine]
[1]; [8]
  ring expansion to a cephalosporin: did not occur
[1]; mixture of the three enzymes, with 1 mM alpha-ketoglutarate
  conversion product: converted to desacetoxycephalosporin C
[2]; [8]
  conversion product by bioassay and HPLC: converted to a mixture of isopenicillin N and penicillin N
[6]
  conversion of ACV into a mixture of isopenicillin N, penicillin N, desacetoxycephalosporin C and desacetylcephalosporin C, by HPLC: approximately 90%

## CC(C)[C@@H](NC(=O)[C@H](CS)NC(=O)CCCCC(=O)O)C(=O)O [adipyl-containing peptide]
[2]; procedures of Example 7
  cyclization of the peptide: Cyclization was observed
  cyclization to the corresponding penicillin, carboxybutylpenicillin: ~20%
